Data taken from patent US20230286923A1 (INIPHARM, INC., priority 2020, published 2023).

Key:
HSD17B13 enzyme [1] = molecular target: T1, HSD17B13 enzyme (Homo sapiens (Human), UniProt Q7Z5P4); assay: Estrone detection assay (LC/MS, conversion of estradiol to estrone) for HSD17B13 activity; type: biochemical; conditions: substrate 4 µM estradiol, 6 mM NAD+, 30 nM enzyme
Method: The liquid chromatography/mass spectrometry (LC/MS) estrone detection assay monitors the conversion of estradiol to estrone by HSD17B13. This assay was undertaken in a 96wp format (Eppendorf deep well Plate 96/500) in an 80 µl reaction volume containing: 4 µM of Estradiol (E2; Cayman; #10006315), 6 mM NAD^+ (Sigma; #N0623) and 30 nM HSD17B13 enzyme (in-house; E. coli expressed His-tagged, purified, soluble protein) in a reaction containing 1 M potassium phosphate buffer pH 7.4, with 0.5% vehicle (DMSO). Reactions were incubated for 2 hours at 26.5° C., and estradiol (E2) conversion to estrone (E1) was quantitated by LC-MS/MS based analyte detection for both E2 and E1 using LCMS grade reagents.
Reactions were terminated by the addition of two volumes of acetonitrile (MeCN; LCMS grade; CAS# 75/05/8) containing deuterated (D4)-E1 used as internal standard (Clear Synth; #CS-T-54273; 500 ng/mL final concentration). Samples were applied to pre-prepared Bond Elut-C18 extraction cartridges (3 mL; Agilent; #12102028), washed and eluted in MeCN. Eluates were dried under nitrogen and re-suspended in 60% methanol (LCMS grade methanol; CAS# 67/56/1) before submission for analysis. Aqueous linearity for E2 and E1 were included for quantification.
Analysis of samples was undertaken on a XBridge BEH C18 column (Waters; #186003033) using 0.1% Diethyl Amine in MeCN (mobile phase A; DEA CAS# 109-89-7) and 0.1% Diethyl Amine in milli-Q water (mobile phase B) in a 3 min gradient allowing 25%B. Analytes were detected in negative mode using MRM analysis, with E2 having a RT of 1.85 min and E1 having a RT of 2 min. Activity of the enzyme, in the absence of NAD^+, was used to evaluate specificity of conversion. Enzyme activity in the presence of test samples was expressed as a percentage of the uninhibited enzyme activity, and plotted versus inhibitor concentration. Non-linear regression was performed using a four-parameter logistic model and GraphPad Prism software (GraphPad Software, La Jolla, CA). All assessments were undertaken in duplicate evaluations and pooled during extraction process and subsequently injected as duplicates for LC-MS/MS analysis.

HSD17B13 enzyme [2] = molecular target: T1, HSD17B13 enzyme; assay: NADH detection assay (fluorescence based LTB3 assay) for HSD17B13 activity; type: biochemical; conditions: substrate 25 µM LTB3, 3 mM NAD+, 125 nM enzyme
Method: The fluorescence based Leukotriene B3 (LTB3) assay monitors the fluorescence of NADH, which is generated from NAD+ during the dehydrogenation of the substrate LTB3. The reactions were performed in a 384-well plates (Greiner; #655076) in a 20 µl reaction volume containing the following reagents (final concentrations): 25 µM LTB3 (Cayman; #20109); 3 mM NAD^+ (Sigma; #N0623); 125 nM HSD17B13 enzyme (in-house; E. coli expressed His-tagged, purified, soluble protein); 1 M potassium phosphate buffer, pH 7.4; and 1% DMSO. Reactions were initiated by co-addition of NAD+ and enzyme, and monitored for 1 hour at 26.5° C. Generation of NADH was measured as the fluorescence signal (Excitation at 340 nm and Emission at 445 nm) at 1 hour minus the baseline fluorescence at t=0. Fluorescence signals in the absence of LTB3 (negative control values), were subtracted from all values so that the results reflected substrate-dependent production of NADH. NADH standards were included to allow the conversion of relative fluorescence units into rates of enzyme activity. Enzyme activity in the presence of test compounds was expressed as a percentage of the uninhibited enzyme activity, and plotted versus inhibitor concentration. Non-linear regression was performed using a four-parameter logistic model and Microsoft Excel Solver software Ten concentrations of inhibitor were tested in duplicate (in the range of 30 µM - 2.5 nM), and two independent concentration response assays were performed.

T1 sequence (Q7Z5P4 20-300): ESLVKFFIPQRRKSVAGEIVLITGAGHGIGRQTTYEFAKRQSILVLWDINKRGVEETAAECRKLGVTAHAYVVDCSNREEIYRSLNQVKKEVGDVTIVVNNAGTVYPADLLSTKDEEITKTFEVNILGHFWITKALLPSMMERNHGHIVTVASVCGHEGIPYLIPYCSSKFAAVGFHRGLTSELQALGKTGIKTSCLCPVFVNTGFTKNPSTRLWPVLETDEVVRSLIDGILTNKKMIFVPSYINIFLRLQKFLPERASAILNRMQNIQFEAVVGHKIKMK

| Structure (SMILES) | IC50 (HSD17B13 enzyme [1]) | IC50 (HSD17B13 enzyme [2]) |
| --- | --- | --- |
| CC(C)(C)CCn1cnc2cccc(NC(=O)c3ccc(S(=O)(=O)NC(=O)c4ccccc4)c(Cl)c3)c2c1=O [Example 18, 4-(N-benzoylsulfamoyl)-3-chloro-N-(3-(3,3-dimethylbutyl)-4-oxo-3,4-dihydroquinazolin-5-yl)benzamide] | 1 to 10 µM | > 10 µM |
| COc1ccccc1CCn1cnc2cccc(NC(=O)c3ccc(O)c(C(C)(C)C)c3)c2c1=O [Example 31, 3-(tert-butyl)-4-hydroxy-N-(3-(2-methoxyphenethyl)-4-oxo-3,4-dihydroquinazolin-5-yl)benzamide] | > 10 µM | > 10 µM |
| O=C(Nc1cccc2ncn(Cc3ccncc3)c(=O)c12)c1ccc(O)c(F)c1 [Example 20, 3-fluoro-4-hydroxy-N-(4-oxo-3-(pyridin-4-ylmethyl)-3,4-dihydroquinazolin-5-yl)benzamide] | 0.1 to 1 µM | > 10 µM |
| COc1ccccc1CCn1cnc2cccc(NC(=O)c3ccc(CC(=O)O)c(F)c3)c2c1=O [Example 25, 2-(2-fluoro-4-((3-(2-methoxyphenethyl)-4-oxo-3,4-dihydroquinazolin-5-yl)carbamoyl)phenyl)acetic acid] | 1 to 10 µM | > 10 µM |
| COc1ccccc1CCn1cnc2cccc(NC(=O)c3ccc(O)c(F)c3)c2c1=O [Example 2, 3-fluoro-4-hydroxy-N-(3-(2-methoxyphenethyl)-4-oxo-3,4-dihydroquinazolin-5-yl)benzamide] | ≤ 0.1 µM | ≤ 1 µM |
| O=C(Nc1cccc2ncn(Cc3ccccc3)c(=O)c12)c1ccc(O)c(Cl)c1 [Example 3, N-(3-benzyl-4-oxo-3,4-dihydroquinazolin-5-yl)-3-chloro-4-hydroxybenzamide] | ≤ 0.1 µM | ≤ 1 µM |
| CC(C)(C)CCn1cnc2cccc(NC(=O)c3cc(Cl)c(O)nn3)c2c1=O [Example 15, 5-chloro-N-(3-(3,3-dimethylbutyl)-4-oxo-3,4-dihydroquinazolin-5-yl)-6-hydroxypyridazine-3-carboxamide] | 1 to 10 µM | > 10 µM |
| COc1ccccc1CCn1cnc2cccc(NC(=O)c3ccc(S(N)(=O)=O)c(Cl)c3)c2c1=O [Example 29, 3-chloro-N-(3-(2-methoxyphenethyl)-4-oxo-3,4-dihydroquinazolin-5-yl)-4-sulfamoylbenzamide] | > 10 µM | > 10 µM |
| COc1ccccc1CCn1cnc2cccc(NC(=O)c3ccc(C(=O)O)c(Cl)c3)c2c1=O [Example 5, 2-chloro-4-((3-(2-methoxyphenethyl)-4-oxo-3,4-dihydroquinazolin-5-yl)carbamoyl)benzoic acid] | 1 to 10 µM | > 10 µM |
| CC(C)(C)CCn1cnc2cccc(NC(=O)c3ccc(S(=O)(=O)NC(=O)c4cccnc4)c(Cl)c3)c2c1=O [Example 16, N-((2-chloro-4-((3-(3,3-dimethylbutyl)-4-oxo-3,4-dihydroquinazolin-5-yl)carbamoyl)phenyl)sulfonyl)nicotinamide] | 1 to 10 µM | 5 to 10 µM |
| COc1ccccc1CCn1cnc2cccc(NC(=O)c3ccnc(C(F)(F)F)c3)c2c1=O [Example 7, N-(3-(2-methoxyphenethyl)-4-oxo-3,4-dihydroquinazolin-5-yl)-2-(trifluoromethyl)isonicotinamide] | > 10 µM | > 10 µM |
| COc1ccccc1CCn1cnc2cccc(NC(=O)c3ccc(P(=O)(O)O)c(F)c3)c2c1=O [Example 23, (2-fluoro-4-((3-(2-methoxyphenethyl)-4-oxo-3,4-dihydroquinazolin-5-yl)carbamoyl)phenyl)phosphonic acid] | > 10 µM | > 10 µM |
| Cn1c(-c2cccnc2)nc2cccc(NC(=O)c3ccc(O)c(Cl)c3)c2c1=O [Example 11, 3-chloro-4-hydroxy-N-(3-methyl-4-oxo-2-(pyridin-3-yl)-3,4-dihydroquinazolin-5-yl)benzamide] | 0.1 to 1 µM | 1 to 5 µM |
| CC(C)(C)CCn1cnc2cccc(NC(=O)c3ccc(O)c(Cl)c3)c2c1=O [Example 10, 3-chloro-N-(3-(3,3-dimethylbutyl)-4-oxo-3,4-dihydroquinazolin-5-yl)-4-hydroxybenzamide] | ≤ 0.1 µM | ≤ 1 µM |
| Cn1c(-c2cccnc2)nc2cccc(NC(=O)c3ccc(-c4nnn[nH]4)c(F)c3)c2c1=O [Example 17, 3-fluoro-N-(3-methyl-4-oxo-2-(pyridin-3-yl)-3,4-dihydroquinazolin-5-yl)-4-(1H-tetrazol-5-yl)benzamide] | > 10 µM | > 10 µM |
| COc1ccccc1CCn1cnc2cccc(NC(=O)c3ccc(-c4cn[nH]c4)c(F)c3)c2c1=O [Example 21, 3-fluoro-N-(3-(2-methoxyphenethyl)-4-oxo-3,4-dihydroquinazolin-5-yl)-4-(1H-pyrazol-4-yl)benzamide] | > 10 µM | > 10 µM |
| COc1ccccc1CCn1cnc2cccc(NC(=O)c3ccc(O)c(Cl)c3)c2c1=O [Example 1, 3-chloro-4-hydroxy-N-(3-(2-methoxyphenethyl)-4-oxo-3,4-dihydroquinazolin-5-yl)benzamide] | ≤ 0.1 µM | ≤ 1 µM |
| COc1ccccc1CCn1cnc2cccc(NC(=O)c3cc(Cl)c4[nH]c(=O)[nH]c4c3)c2c1=O [Example 19, 7-chloro-N-(3-(2-methoxyphenethyl)-4-oxo-3,4-dihydroquinazolin-5-yl)-2-oxo-2,3-dihydro-1H-benzo[d]imidazole-5-carboxamide] | > 10 µM | 1 to 5 µM |
| COc1ccccc1CCn1cnc2sc(C)c(NC(=O)c3ccc(O)c(Cl)c3)c2c1=O [Example 34, 3-chloro-4-hydroxy-N-(3-(2-methoxyphenethyl)-6-methyl-4-oxo-3,4-dihydrothieno[2,3-d]pyrimidin-5-yl)benzamide] | ≤ 0.1 µM | ≤ 1 µM |
| O=C(Nc1cccc2ncn(-c3ccccc3)c(=O)c12)c1ccc(O)c(Cl)c1 [Example 8, 3-chloro-4-hydroxy-N-(4-oxo-3-phenyl-3,4-dihydroquinazolin-5-yl)benzamide] | 0.1 to 1 µM | > 10 µM |
| COc1ccccc1CCn1cnc2c(c(NC(=O)c3ccc(O)c(F)c3)nn2C)c1=O [Example 28, 3-fluoro-4-hydroxy-N-(5-(2-methoxyphenethyl)-1-methyl-4-oxo-4,5-dihydro-1H-pyrazolo[3,4-d]pyrimidin-3-yl)benzamide] | 0.1 to 1 µM | 5 to 10 µM |
| COc1ccccc1CCn1cnc2cccc(NC(=O)c3ccc(-c4nnn[nH]4)c(Cl)c3)c2c1=O [Example 27, 3-chloro-N-(3-(2-methoxyphenethyl)-4-oxo-3,4-dihydroquinazolin-5-yl)-4-(1H-tetrazol-5-yl)benzamide] | 1 to 10 µM | 1 to 5 µM |
| COc1ccccc1CCn1cnc2cccc(NC(=O)c3ccc(-c4cc[nH]n4)c(F)c3)c2c1=O [Example 22, 3-fluoro-N-(3-(2-methoxyphenethyl)-4-oxo-3,4-dihydroquinazolin-5-yl)-4-(1H-pyrazol-3-yl)benzamide] | > 10 µM | 1 to 5 µM |
| COc1ccccc1Cn1cnc2cccc(NC(=O)c3ccc(O)c(Cl)c3)c2c1=O [Example 6, 3-chloro-4-hydroxy-N-(3-(2-methoxybenzyl)-4-oxo-3,4-dihydroquinazolin-5-yl)benzamide] | ≤ 0.1 µM | ≤ 1 µM |
| O=C(Nc1cccc2ncn(Cc3cccnc3)c(=O)c12)c1ccc(O)c(Cl)c1 [Example 30, 3-chloro-4-hydroxy-N-(4-oxo-3-(pyridin-3-ylmethyl)-3,4-dihydroquinazolin-5-yl)benzamide] | ≤ 0.1 µM | ≤ 1 µM |
